34 compounds from US7276603B2, “Benzofuranyl-and benzothienyl-piperazinyl quinolines and methods of their use” (Wyeth, priority 2003, dated 2007) can be followed below.

Test [1] concerns the target 5-HT transporter (Rattus norvegicus, UniProt P31652). The test can be described thus: Rat Brain 3H-Paroxetine Binding Assay (RB 5HT Transporter). The following applies: rat frontal cortical membranes; 3H-paroxetine 0.1 nM, 60 min, 25° C. The text has this: Rat Brain ^3H-Paroxetine Binding Assay (RB 5HT Transporter):
This assay was used to determine a compound's affinity of the 5-HT transporter.
All reactions were terminated by the addition of ice cold Tris buffer followed by rapid filtration using a Tom Tech filtration device to separate bound from free ^3H-paroxetine.

For test [2], the target named is T1, human 5-HT1A receptors (Homo sapiens, UniProt P08908).
T1 construct: expressed in transfected cells; host or cells: CHO cells
T1 sequence (P08908 1-422): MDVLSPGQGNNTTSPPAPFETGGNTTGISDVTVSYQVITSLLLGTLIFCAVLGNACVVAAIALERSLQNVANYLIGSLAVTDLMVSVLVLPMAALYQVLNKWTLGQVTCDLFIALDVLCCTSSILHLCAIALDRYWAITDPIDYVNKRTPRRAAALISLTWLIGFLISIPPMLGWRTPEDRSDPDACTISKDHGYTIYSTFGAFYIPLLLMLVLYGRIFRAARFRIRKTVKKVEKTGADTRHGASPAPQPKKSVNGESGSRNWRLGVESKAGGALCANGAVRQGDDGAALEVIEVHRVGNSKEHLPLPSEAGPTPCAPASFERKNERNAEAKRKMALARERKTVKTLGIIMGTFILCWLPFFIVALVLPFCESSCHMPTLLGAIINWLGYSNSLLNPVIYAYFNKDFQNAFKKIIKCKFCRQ
The test can be described thus: displacement of [3H] 8-OH-DPAT from the 5-HT1A serotonin receptor. The test is classed as binding. The following applies: CHO cells stably transfected with human 5-HT1A receptors.

Sequence of 5-HT transporter (P31652 whole entry): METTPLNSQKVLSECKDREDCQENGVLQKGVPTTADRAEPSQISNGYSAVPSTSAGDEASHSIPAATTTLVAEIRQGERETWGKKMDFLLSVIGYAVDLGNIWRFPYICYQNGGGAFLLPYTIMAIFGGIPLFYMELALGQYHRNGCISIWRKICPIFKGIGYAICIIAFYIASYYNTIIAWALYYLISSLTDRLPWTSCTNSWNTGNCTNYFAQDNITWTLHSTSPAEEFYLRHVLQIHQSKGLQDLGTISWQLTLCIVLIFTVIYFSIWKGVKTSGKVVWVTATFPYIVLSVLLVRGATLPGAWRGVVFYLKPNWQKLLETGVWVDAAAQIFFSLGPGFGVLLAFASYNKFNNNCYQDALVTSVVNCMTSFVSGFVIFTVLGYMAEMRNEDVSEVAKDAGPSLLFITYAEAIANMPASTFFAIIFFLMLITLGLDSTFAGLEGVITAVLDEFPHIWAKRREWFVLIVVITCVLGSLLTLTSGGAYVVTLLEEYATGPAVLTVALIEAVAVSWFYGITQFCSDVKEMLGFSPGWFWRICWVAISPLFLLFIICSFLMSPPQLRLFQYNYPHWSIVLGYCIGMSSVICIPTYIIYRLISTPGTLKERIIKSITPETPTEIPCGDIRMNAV

With `Fc1cc(N2CCN(CCc3coc4ccccc34)CC2)c2ncccc2c1` [Compound 1, 8-{4-[2-(1-benzofuran-3-yl)ethyl]-1-piperazinyl}-6-fluoroquinoline], the Ki in test [1] amounted to 6.5 nM. In other words, the single-digit nanomolar range.
On to `Clc1cc(N2CCN(CCc3coc4ccccc34)CC2)c2ncccc2c1` [Compound 2, 8-{4-[2-(1-benzofuran-3-yl)ethyl]-1-piperazinyl}-6-chloroquinoline], for which the inhibitory constant (Ki) amounted to 124 nM in test [2] and 176 nM in test [1].
As to `Cc1cc(N2CCN(CCc3coc4ccccc34)CC2)c2ncccc2c1` [Compound 3, 8-{4-[2-(1-benzofuran-3-yl)ethyl]-1-piperazinyl}-6-methylquinoline], the Ki in test [2] came out at 1.93 nM; in test [1] it was 14 nM.
On to `COc1cc(N2CCN(CCc3coc4ccccc34)CC2)c2ncccc2c1` [Compound 4, 8-{4-[2-(1-benzofuran-3-yl)ethyl]-1-piperazinyl}-6-methoxyquinoline], for which the Ki stood at 2.48 nM in test [2] and 60 nM in test [1].
For `Clc1ccc2c(CCN3CCN(c4cccc5cccnc45)CC3)coc2c1` [Compound 5, 8-{4-[2-(6-chloro-1-benzofuran-3-yl)ethyl]-1-piperazinyl}-quinoline], the inhibition constant (Ki) in test [2] was 0.73 nM; in test [1], 31 nM.
For `Fc1cc(N2CCN(CCc3coc4cc(Cl)ccc34)CC2)c2ncccc2c1` [Compound 6, 8-{4-[2-(6-chloro-1-benzofuran-3-yl)ethyl]-1-piperazinyl}-6-fluoro-quinoline], the figures for the inhibition constant Ki in test [2] and in test [1] were 16.1 nM and 471 nM, respectively.
For the compound `Clc1cc(N2CCN(CCc3coc4cc(Cl)ccc34)CC2)c2ncccc2c1` [Compound 7, 8-{4-[2-(6-chloro-1-benzofuran-3-yl)ethyl]-1-piperazinyl}-6-chloro-quinoline], affinity in test [2] was put at a Ki of 15.4 nM. This lies in the double-digit nanomolar range.
As for `Cc1cc(N2CCN(CCc3coc4cc(Cl)ccc34)CC2)c2ncccc2c1` [Compound 8, 8-{4-[2-(6-chloro-1-benzofuran-3-yl)ethyl]-1-piperazinyl}-6-methyl-quinoline], the Ki in test [2] was determined as 36.7 nM; in test [1], 403 nM.
For the compound `COc1ccc2c(CCN3CCN(c4cccc5cccnc45)CC3)coc2c1` [Compound 9, 8-{4-[2-(6-methoxy-1-benzofuran-3-yl)ethyl]-1-piperazinyl}-quinoline], the inhibitory constant (Ki) in test [2] worked out at 0.37 nM; in test [1] it was 33 nM.
For `COc1ccc2c(CCN3CCN(c4cc(C)cc5cccnc45)CC3)coc2c1` [Compound 10, 8-{4-[2-(6-methoxy-1-benzofuran-3-yl)ethyl]-1-piperazinyl}-6-methyl-quinoline], the inhibitory constant (Ki) stood at 0.94 nM in test [2] and 97 nM in test [1].
As for `COc1ccc2c(CCN3CCN(c4cc(Cl)cc5cccnc45)CC3)coc2c1` [Compound 11, 8-{4-[2-(6-methoxy-1-benzofuran-3-yl)ethyl]-1-piperazinyl}-6-chloro-quinoline], the Ki in test [2] is 0.81 nM; in test [1] it was 37 nM.
For `Clc1ccc2occ(CCN3CCN(c4cccc5cccnc45)CC3)c2c1` [Compound 12, 8-{4-[2-(5-chloro-1-benzofuran-3-yl)ethyl]-1-piperazinyl}-quinoline], the values for the inhibition constant Ki in test [2] and in test [1] were 2.92 nM and 11 nM, respectively.
`Clc1cc(N2CCN(CCc3coc4ccc(Cl)cc34)CC2)c2ncccc2c1` [Compound 13, 8-{4-[2-(5-chloro-1-benzofuran-3-yl)ethyl]-1-piperazinyl}-6-chloro-quinoline]: the inhibition constant Ki was 41.3 nM in test [2] and 64 nM in test [1].
With `Cc1cc(N2CCN(CCc3coc4ccc(Cl)cc34)CC2)c2ncccc2c1` [Compound 14, 8-{4-[2-(5-chloro-1-benzofuran-3-yl)ethyl]-1-piperazinyl}-6-methyl-quinoline], the Ki in test [2] is 13.5 nM; in test [1] it was 45 nM.
Regarding `Fc1ccc2occ(CCN3CCN(c4cccc5cccnc45)CC3)c2c1` [Compound 15, 8-{4-[2-(5-fluoro-1-benzofuran-3-yl)ethyl]-1-piperazinyl}-quinoline], the figures for the Ki in test [2] and in test [1] were 0.37 nM and 17 nM, respectively.
For `COc1cc(N2CCN(CCc3coc4ccc(F)cc34)CC2)c2ncccc2c1` [Compound 16, 8-{4-[2-(5-fluoro-1-benzofuran-3-yl)ethyl]-1-piperazinyl}-6-methoxy-quinoline], the Ki is 8.05 nM in test [2] and 62 nM in test [1].
On to `Fc1cc(N2CCN(CCc3coc4ccc(F)cc34)CC2)c2ncccc2c1` [Compound 17, 8-{4-[2-(5-fluoro-1-benzofuran-3-yl)ethyl]-1-piperazinyl}-6-fluoro-quinoline], for which the Ki in test [2] worked out at 1.59 nM; in test [1], 16.5 nM.
For the compound `COc1cccc2c(CCN3CCN(c4cccc5cccnc45)CC3)coc12` [Compound 18, 8-{4-[2-(7-methoxy-1-benzofuran-3-yl)ethyl]-1-piperazinyl}-quinoline], the results for the Ki in test [2] and in test [1] were 0.11 nM and 0.65 nM, respectively.
For `COc1cccc2c(CCN3CCN(c4cc(Cl)cc5cccnc45)CC3)coc12` [Compound 20, 8-{4-[2-(7-methoxy-1-benzofuran-3-yl)ethyl]-1-piperazinyl}-6-chloro-quinoline] the same measures were 0.14 nM and 3.79 nM.
As for `COc1ccc2occ(CCN3CCN(c4cc(C)cc5cccnc45)CC3)c2c1` [Compound 23, 8-{4-[2-(5-methoxy-1-benzofuran-3-yl)ethyl]-1-piperazinyl}-6-methyl-quinoline], the results for the Ki in test [2] and in test [1] were 20 nM and 28.5 nM, respectively.
The like results for `COc1cc(N2CCN(CCc3coc4ccc(OC)cc34)CC2)c2ncccc2c1` [Compound 25, 8-{4-[2-(5-methoxy-1-benzofuran-3-yl)ethyl]-1-piperazinyl}-6-methoxy-quinoline] were, in that order, 8.71 nM and 47 nM.
Take `COc1ccc2occ(CCN3CCN(c4cc(F)cc5cccnc45)CC3)c2c1` [Compound 26, 8-{4-[2-(5-methoxy-1-benzofuran-3-yl)ethyl]-1-piperazinyl}-6-fluoro-quinoline]: the Ki in test [2] is 14.4 nM; in test [1] it was 16.5 nM.
For `CC(CN1CCN(c2cccc3cccnc23)CC1)c1coc2ccccc12` (centres unmarked) [Compound 27, 8-{4-[2-(1-benzofuran-3-yl)propyl]-1-piperazinyl}quinoline], the inhibitory constant (Ki) in test [2] is 19.3 nM; in test [1], 32 nM.
The like results for `CC(CN1CCN(c2cc(Cl)cc3cccnc23)CC1)c1coc2ccccc12` (centres unmarked) [Compound 28, 8-{4-[2-(1-benzofuran-3-yl)propyl]-1-piperazinyl}-6-chloro-quinoline] were, in that order, 110 nM and 73 nM.
For `CC(CN1CCN(c2cc(F)cc3cccnc23)CC1)c1coc2ccccc12` (centres unmarked) [Compound 29, 8-{4-[2-(1-benzofuran-3-yl)propyl]-1-piperazinyl}-6-fluoro-quinoline] the same measures were 112 nM and 68 nM.
On to `Cc1cc(N2CCN(CC(C)c3coc4ccccc34)CC2)c2ncccc2c1` (centres unmarked) [Compound 30, 8-{4-[2-(1-benzofuran-3-yl)propyl]-1-piperazinyl}-6-methyl-quinoline], for which the inhibition constant Ki was found to be 79.1 nM in test [2] and 93 nM in test [1].
With `COc1cccc2c(C(C)CN3CCN(c4cccc5cccnc45)CC3)coc12` (centres unmarked) [Compound 31, 8-{4-[2-(7-methoxy-1-benzofuran-3-yl)propyl]-1-piperazinyl}quinoline], the inhibition constant (Ki) in test [2] was determined as 0.91 nM; in test [1] it was 4.17 nM.
Take `COc1cccc2c(C(C)CN3CCN(c4cc(C)cc5cccnc45)CC3)coc12` (centres unmarked) [Compound 32, 8-{4-[2-(7-methoxy-1-benzofuran-3-yl)propyl]-1-piperazinyl}-6-methyl-quinoline]: the inhibition constant Ki in test [2] worked out at 2.16 nM; in test [1], 35 nM.
For `COc1cccc2c(C(C)CN3CCN(c4cc(Cl)cc5cccnc45)CC3)coc12` (centres unmarked) [Compound 33, 8-{4-[2-(7-methoxy-1-benzofuran-3-yl)propyl]-1-piperazinyl}-6-chloro-quinoline] the same measures were 8.19 nM and 58 nM.
As for `COc1cccc2c(C(C)CN3CCN(c4cc(C)cc5cccnc45)CC3)coc12` (centres unmarked) [Compound 34, 8-{4-[2-(7-methoxy-1-benzofuran-3-yl)propyl]-1-piperazinyl}-6-methyl-quinoline], the Ki is 9.13 nM in test [2] and 35 nM in test [1].
As for `COc1cccc2c(CC(C)N3CCN(c4cccc5cccnc45)CC3)coc12` (centres unmarked) [Compound 35, 8-{4-[2-(7-methoxy-1-benzofuran-3-yl)-1-methylethyl)piperazin-1-yl]quinoline], the affinity in test [2] corresponds to a Ki of 1.22 nM.
`COc1cccc2c(CC(C)N3CCN(c4cc(C)cc5cccnc45)CC3)coc12` (centres unmarked) [Compound 37, 6-methyl-8-{4-[2-(7-methoxy-1-benzofuran-3-yl)-1-methylethyl)piperazin-1-yl]quinoline] came in with a Ki in test [1] of 471 nM.
In the case of `COc1ccc2occ(CC(C)N3CCN(c4cccc5cccnc45)CC3)c2c1` (centres unmarked) [Compound 38, 8-{4-[2-(5-methoxy-1-benzofuran-3-yl)-1-methylethyl)piperazin-1-yl]quinoline], the affinity in test [2] corresponds to a Ki of 0.14 nM.
On the same count and under the same terms, then `Fc1cc(N2CCN([C@H]3CC[C@@H](c4csc5ccc(F)cc54)CC3)CC2)c2ncccc2c1` [Compound 47, 6-fluoro-8-{4-[4-cis(5-fluoro-1-benzothien-3-yl)cyclohexyl]piperazin-1-yl}quinoline], with 1.72 nM.
